# B1: G-CSF: Recombinant murine G-CSF, granulocyte-colony stimulating factor (protein, UniProt P09920 31-208, looked up)
# Granulocyte …: VPLVTVSALPPSLPLPRSFLLKSLEQVRKIQASGSVLLEQLCATYKLCHPEELVLLGHSLGIPKASLSGCSSQALQQTQCLSQLHSGLCLYQGLLQALSGISPALAPTLDLLQLDVANFATTIWQQMENLGVAPTVQPTQSAMPAFTSAFQRRAGGVLAISYLQGFLETARLALHHLA
# Assays:
# C57/B16 mice = assay: Complete blood count, beta blockers +/- GPC100, single agents and combinations (Examples 6-7); conditions: for effect of 7-day beta blocker on GPC100-induced mobilization: GPC100 30 mg/kg IV on day 7
# C57BL/6J or Balb/c mice [1] = conditions: 5 mg/kg SC, literature; cited from earlier work
# [2] = target: CXCR4 and B2AR heteromers (Homo sapiens, UniProt P61073); conditions: MDA-MB-231 cells
# Sequence of CXCR4 and B2AR heteromers (P61073 whole entry, one chain of several): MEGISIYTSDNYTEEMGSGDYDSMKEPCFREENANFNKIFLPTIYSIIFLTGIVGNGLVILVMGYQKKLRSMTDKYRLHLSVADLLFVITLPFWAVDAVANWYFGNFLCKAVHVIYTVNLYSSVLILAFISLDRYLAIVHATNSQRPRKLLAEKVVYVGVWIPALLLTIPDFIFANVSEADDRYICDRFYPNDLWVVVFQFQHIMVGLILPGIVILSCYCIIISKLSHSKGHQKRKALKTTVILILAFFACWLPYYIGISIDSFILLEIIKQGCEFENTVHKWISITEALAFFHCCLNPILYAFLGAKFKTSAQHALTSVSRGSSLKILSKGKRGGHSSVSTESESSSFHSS
# C57BL/6J or Balb/c mice [3] = assay: In vivo mobilization, CBC analysis of WBC (Example 11); conditions: for fold increase in WBCs compared to the vehicle: PB 2 h after GPC-100 30 mg/kg IV, 1 h after AMD3100 5 mg/kg SC, 12 h after G-CSF 0.1 mg/kg SC BID x5, propranolol 20 mg/kg IP QD x7
# [4] = system: LSK cells (Lineage−Sca−1+c−Kit+); assay: Flow cytometry of LSK cells in peripheral blood; conditions: mouse, in vivo
# C57/BL6 mice = assay: Complete blood count in peripheral blood, Example 1 mobilization studies; conditions: 7-day treatment alone, 20 mg/kg IP
molecule,measurement,setting,value
CC(C)(C)NCC(O)COc1cccc2c1CC(O)C(O)C2 (centres unmarked) [Nadolol],effect of 7-day beta blocker on GPC100-induced mobilization,C57/B16 mice,enhanced
"Cc1ccc(OCC(O)C(C)NC(C)C)c2c1CCC2 (centres unmarked) [ICI-118,551]",effect on total blood cell counts when administered alone,"C57/B16 mice; seven-day IP, propranolol 20 mg/kg, nadolol 5 mg/kg, ICI-118,551 5 mg/kg",did not affect
"c1cc(CN2CCCNCCNCCCNCC2)ccc1CN1CCCNCCNCCCNCC1 [AMD3100, Plerixafor]",time of peak mobilization,C57BL/6J or Balb/c mice [1],1 h
same,Inhibition of Ca2+ flux enhanced by co-treatment with Pro (in words),[2],not
same,"changes in platelet count, hemoglobin or other red blood cell parameters",C57BL/6J or Balb/c mice [3]; single administration,No changes
CC(C)NCC(O)COc1cccc2ccccc12 (centres unmarked) [Propranolol],effect of propranolol on LSK cell mobilization by GPC-100,[4],enhanced
same,effect of 7-day beta blocker on GPC100-induced mobilization,C57/B16 mice,enhanced
same,effect on AMD3100-induced mobilization of lymphocytes,"C57/B16 mice; propranolol 20 mg/kg IP D1-D7, AMD3100 5 mg/kg SC D7",slightly increase
same,effect of propranolol pretreatment on GPC-100 induced mobilization,C57BL/6J or Balb/c mice [3]; 20 mg/kg IP over 7 days,significantly improved
same,fold increase in WBCs compared to the vehicle,C57BL/6J or Balb/c mice [3],4.1 fold
same,Hemoglobin,C57/BL6 mice,13.15 ± 0.8 g/dL
same,Lymphocytes,C57/BL6 mice,4.7 ± 1.3 10^3/uL
same,Monocytes,C57/BL6 mice,0.2 ± 0.09 10^3/uL
same,Neutrophils,C57/BL6 mice,0.42 ± 0.3 10^3/uL
same,Platelets,C57/BL6 mice,266 ± 52 10^3/uL
same,RBC,C57/BL6 mice,9.8 ± 0.36 10^6/uL
same,WBC,C57/BL6 mice; vehicle IV on day 7,5.4 ± 1.7 10^3/uL
B1,"WBC mobilization, single agent comparison",C57/B16 mice; single agent,Maximum mobilization
same,"neutrophil mobilization, single agent comparison",C57/B16 mice; single agent,more neutrophils than GPC100 or AMD3100
same,fold increase in WBCs compared to the vehicle,C57BL/6J or Balb/c mice [3],4.5 fold

# Reference: patent publication US20250360149A1, “GPCR INHIBITORS AND USES THEREOF” (GPCR Therapeutics, Inc., priority 2022, published 2025)
